Data: the supplement of paper PMC11061612

What was measured:
Capivasertib = compound: C1CN(CCC1(C(=O)N[C@@H](CCO)C2=CC=C(C=C2)Cl)N)C3=NC=NC4=C3C=CN4 [Capivasertib]; conditions: max 10 µM
Outline: (§1)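 Following 24 hours at 37°C and 5% CO2, cancer cell lines in 1536-well plates with 7.5 μl DMEM/F12 or RPMI and 10% FBS were dosed for 72 hours, final DMSO typically being 0.2%. CellTiter-Glo 2.0 luminescence, scaled between blank-well and DMSO-well means, gave the viability readout. Dose responses were fitted to a two-parameter logistic curve with a non-linear mixed effects model, and the single-agent IC50 was derived from this fit.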

AZD1775 = compound: C=CCn1c(=O)c2cnc(Nc3ccc(N4CCN(C)CC4)cc3)nc2n1-c1cccc(C(C)(C)O)n1 [AZD1775]; conditions: max 3 µM
Outline: as §1

Trametinib = compound: CC(=O)Nc1cccc(-n2c(=O)n(C3CC3)c(=O)c3c(Nc4ccc(I)cc4F)n(C)c(=O)c(C)c32)c1 [Trametinib]; conditions: max 1 µM
Outline: as §1

Palbociclib = compound: CC(=O)c1c(C)c2cnc(Nc3ccc(N4CCNCC4)cn3)nc2n(C2CCCC2)c1=O [Palbociclib]; conditions: max 10 µM
Outline: as §1

AZD1390 = compound: CC(C)n1c(=O)n(C)c2cnc3cc(F)c(-c4ccc(OCCCN5CCCCC5)nc4)cc3c21 [AZD1390]; conditions: max 0.3 µM
Outline: as §1

Venetoclax = compound: CC1(C)CCC(CN2CCN(c3ccc(C(=O)NS(=O)(=O)c4ccc(NCC5CCOCC5)c([N+](=O)[O-])c4)c(Oc4cnc5[nH]ccc5c4)c3)CC2)=C(c2ccc(Cl)cc2)C1 [Venetoclax]; conditions: max 1 µM
Outline: as §1

Dasatinib = compound: CC1=C(C(=CC=C1)Cl)NC(=O)C2=CN=C(S2)NC3=CC(=NC(=N3)C)N4CCN(CC4)CCO [Dasatinib]; conditions: max 2 µM
Outline: as §1

SG3199 = compound: CC1=CN2[C@@H](C1)C=NC3=CC(=C(C=C3C2=O)OC)OCCCCCOC4=C(C=C5C(=C4)N=C[C@@H]6CC(=CN6C5=O)C)OC [SG3199]; conditions: max 0.001 µM
Outline: as §1

AZD2811 = compound: CCN(CCO)CCCOc1ccc2c(Nc3cc(CC(=O)Nc4cccc(F)c4)[nH]n3)ncnc2c1 [AZD2811]; conditions: max 1 µM
Outline: as §1

SN-38 = compound: CCc1c2c(nc3ccc(O)cc13)-c1cc3c(c(=O)n1C2)COC(=O)[C@]3(O)CC [SN-38]; conditions: max 0.3 µM
Outline: as §1

AZD0156 = compound: CN(C)CCCOc1ccc(-c2ccc3ncc4c(c3c2)n(C2CCOCC2)c(=O)n4C)cn1 [AZD0156]; conditions: max 3 µM
Outline: as §1

AZD4320 = compound: CN(CC[C@H](CSC1=CC=CC=C1)NC2=C(C=C(C=C2)S(=O)(=O)NC(=O)C3=CC=C(C=C3)N4CCC(CC4)[C@H](C5=CC=CC=C5C6=CC=C(C=C6)Cl)O)S(=O)(=O)C(F)(F)F)CCO [AZD4320]; conditions: max 1 µM
Outline: as §1

Alisertib = compound: COc1cc(Nc2ncc3c(n2)-c2ccc(Cl)cc2C(c2c(F)cccc2OC)=NC3)ccc1C(=O)O [Alisertib]; conditions: max 10 µM
Outline: as §1

Gefitinib = compound: COc1cc2ncnc(Nc3ccc(F)c(Cl)c3)c2cc1OCCCN1CCOCC1 [Gefitinib]; conditions: max 10 µM
Outline: as §1

Prexasertib = compound: COc1cccc(OCCCN)c1-c1cc(Nc2cnc(C#N)cn2)n[nH]1 [Prexasertib]; conditions: max 1 µM
Outline: as §1

Doxorubicin = compound: COc1cccc2c1C(=O)c1c(O)c3c(c(O)c1C2=O)C[C@@](O)(C(=O)CO)C[C@@H]3O[C@H]1C[C@H](N)[C@H](O)[C@H](C)O1 [Doxorubicin]; conditions: max 1 µM
Outline: as §1

AZD5153 = compound: COc1nnc2ccc(N3CCC(c4ccc(OCCN5CCN(C)C(=O)[C@H]5C)cc4)CC3)nn12 [AZD5153]; conditions: max 1 µM
Outline: as §1

Lapatinib = compound: CS(=O)(=O)CCNCc1ccc(-c2ccc3ncnc(Nc4ccc(OCc5cccc(F)c5)c(Cl)c4)c3c2)o1 [Lapatinib]; conditions: max 10 µM
Outline: as §1

AZD8186 = compound: C[C@@H](Nc1cc(F)cc(F)c1)c1cc(C(=O)N(C)C)cc2c(=O)cc(N3CCOCC3)oc12 [AZD8186]; conditions: max 3 µM
Outline: as §1

Crizotinib = compound: C[C@@H](Oc1cc(-c2cnn(C3CCNCC3)c2)cnc1N)c1c(Cl)ccc(F)c1Cl [Crizotinib]; conditions: max 10 µM
Outline: as §1

Savolitinib = compound: C[C@@H](c1ccc2nccn2c1)n1nnc2ncc(-c3cnn(C)c3)nc21 [Savolitinib]; conditions: max 1 µM
Outline: as §1

AZD6738 = compound: C[C@@H]1COCCN1C2=NC(=NC(=C2)C3(CC3)[S@](=N)(=O)C)C4=C5C=CNC5=NC=C4 [AZD6738]; conditions: max 10 µM
Outline: as §1

AZD5991 = compound: Cc1c2c(nn1C)CSCc1cc(n(C)n1)CSc1cc(c3ccccc3c1)OCCCc1c(C(=O)O)n(C)c3c-2c(Cl)ccc13 [AZD5991]; conditions: max 1 µM
Outline: as §1

AZD7648 = compound: Cc1cc2ncnn2cc1Nc1ncc2c(n1)n(C1CCOCC1)c(=O)n2C [AZD7648]; conditions: max 10 µM
Outline: as §1

Taselisib = compound: Cc1nc(-c2cn3c(n2)-c2ccc(-c4cnn(C(C)(C)C(N)=O)c4)cc2OCC3)n(C(C)C)n1 [Taselisib]; conditions: max 10 µM
Outline: as §1

Selumetinib = compound: Cn1cnc2c(F)c(Nc3ccc(Br)cc3Cl)c(C(=O)NOCCO)cc21 [Selumetinib]; conditions: max 10 µM
Outline: as §1

MK-2206 = compound: NC1(c2ccc(-c3nc4ccn5c(=O)[nH]nc5c4cc3-c3ccccc3)cc2)CCC1 [MK-2206]; conditions: max 10 µM
Outline: as §1

Olaparib = compound: O=C(c1cc(Cc2n[nH]c(=O)c3ccccc23)ccc1F)N1CCN(C(=O)C2CC2)CC1 [Olaparib]; conditions: max 10 µM
Outline: as §1

## SBC-5 (Small Cell Lung Carcinoma)
Capivasertib
  IC50, cell viability 72 h: > 10000 nM
AZD1775
  IC50, cell viability 72 h: 1140 nM
Trametinib
  IC50, cell viability 72 h: > 1000 nM
Palbociclib
  IC50, cell viability 72 h: > 10000 nM
AZD1390
  IC50, cell viability 72 h: > 300 nM
Venetoclax
  IC50, cell viability 72 h: > 1000 nM
Dasatinib
  IC50, cell viability 72 h: > 2000 nM
SG3199
  IC50, cell viability 72 h: > 1 nM
AZD2811
  IC50, cell viability 72 h: > 1000 nM
SN-38
  IC50, cell viability 72 h: 20.2 nM
AZD0156
  IC50, cell viability 72 h: > 3000 nM
AZD4320
  IC50, cell viability 72 h: > 1000 nM
Alisertib
  IC50, cell viability 72 h: 3250 nM
Gefitinib
  IC50, cell viability 72 h: > 10000 nM
Prexasertib
  IC50, cell viability 72 h: 79.5 nM
Doxorubicin
  IC50, cell viability 72 h: > 1000 nM
AZD5153
  IC50, cell viability 72 h: 507 nM
Lapatinib
  IC50, cell viability 72 h: > 10000 nM
AZD8186
  IC50, cell viability 72 h: > 3000 nM
Crizotinib
  IC50, cell viability 72 h: 7270 nM
Savolitinib
  IC50, cell viability 72 h: > 1000 nM
AZD6738
  IC50, cell viability 72 h: 5870 nM
AZD5991
  IC50, cell viability 72 h: > 1000 nM
AZD7648
  IC50, cell viability 72 h: > 10000 nM
Taselisib
  IC50, cell viability 72 h: 4640 nM
Selumetinib
  IC50, cell viability 72 h: > 10000 nM
MK-2206
  IC50, cell viability 72 h: > 10000 nM
Olaparib
  IC50, cell viability 72 h: > 10000 nM

## SUP-HD1 (Hodgkin's Lymphoma)
Capivasertib
  IC50, cell viability 72 h: 7900 nM
AZD1775
  IC50, cell viability 72 h: 1330 nM
Trametinib
  IC50, cell viability 72 h: > 1000 nM
Palbociclib
  IC50, cell viability 72 h: > 10000 nM
AZD1390
  IC50, cell viability 72 h: > 300 nM
Venetoclax
  IC50, cell viability 72 h: 15.6 nM
Dasatinib
  IC50, cell viability 72 h: > 2000 nM
SG3199
  IC50, cell viability 72 h: > 1 nM
AZD2811
  IC50, cell viability 72 h: 995 nM
SN-38
  IC50, cell viability 72 h: 2.49 nM
AZD0156
  IC50, cell viability 72 h: > 3000 nM
AZD4320
  IC50, cell viability 72 h: 12.6 nM
Alisertib
  IC50, cell viability 72 h: 5400 nM
Gefitinib
  IC50, cell viability 72 h: > 10000 nM
Prexasertib
  IC50, cell viability 72 h: 15.5 nM
Doxorubicin
  IC50, cell viability 72 h: 99.6 nM
AZD5153
  IC50, cell viability 72 h: 224 nM
Lapatinib
  IC50, cell viability 72 h: > 10000 nM
AZD8186
  IC50, cell viability 72 h: > 3000 nM
Crizotinib
  IC50, cell viability 72 h: 6540 nM
Savolitinib
  IC50, cell viability 72 h: > 1000 nM
AZD6738
  IC50, cell viability 72 h: 4040 nM
AZD5991
  IC50, cell viability 72 h: 516 nM
AZD7648
  IC50, cell viability 72 h: > 10000 nM
Taselisib
  IC50, cell viability 72 h: 5270 nM
Selumetinib
  IC50, cell viability 72 h: > 10000 nM
Olaparib
  IC50, cell viability 72 h: > 10000 nM

## JJN-3 (Plasma Cell Myeloma)
Capivasertib
  IC50, cell viability 72 h: > 10000 nM
AZD1775
  IC50, cell viability 72 h: 654 nM
Trametinib
  IC50, cell viability 72 h: > 1000 nM
Palbociclib
  IC50, cell viability 72 h: > 10000 nM
AZD1390
  IC50, cell viability 72 h: > 300 nM
Venetoclax
  IC50, cell viability 72 h: > 1000 nM
Dasatinib
  IC50, cell viability 72 h: > 2000 nM
SG3199
  IC50, cell viability 72 h: > 1 nM
AZD2811
  IC50, cell viability 72 h: > 1000 nM
SN-38
  IC50, cell viability 72 h: 163 nM
AZD0156
  IC50, cell viability 72 h: > 3000 nM
AZD4320
  IC50, cell viability 72 h: 866 nM
Alisertib
  IC50, cell viability 72 h: > 10000 nM
Gefitinib
  IC50, cell viability 72 h: > 10000 nM
Prexasertib
  IC50, cell viability 72 h: 27.4 nM
Doxorubicin
  IC50, cell viability 72 h: 994 nM
AZD5153
  IC50, cell viability 72 h: 47.6 nM
Lapatinib
  IC50, cell viability 72 h: > 10000 nM
AZD8186
  IC50, cell viability 72 h: > 3000 nM
Crizotinib
  IC50, cell viability 72 h: > 10000 nM
Savolitinib
  IC50, cell viability 72 h: > 1000 nM
AZD6738
  IC50, cell viability 72 h: 5740 nM
AZD5991
  IC50, cell viability 72 h: 49.5 nM
AZD7648
  IC50, cell viability 72 h: > 10000 nM
Taselisib
  IC50, cell viability 72 h: > 10000 nM
Selumetinib
  IC50, cell viability 72 h: > 10000 nM
MK-2206
  IC50, cell viability 72 h: > 10000 nM
Olaparib
  IC50, cell viability 72 h: > 10000 nM
